Reference: patent publication US10336784B2, “Methods for modular synthesis of N-glycans and arrays thereof” (Academia Sinica, priority 2016, dated 2019)
“Also recorded” adds a separate entry of the source.

Assays:
PG16 [1] = test: Glycan microarray on NHS-coated glass slide, binding of PG16; parameters: species or system human; conditions: NHS-activated glass slide, glycans printed at 100 μM
Method: To gain insights into the glycan specificities of these antibodies, the inventors used our newly developed array to profile the ligands of HIV-1 bNAbs. The synthetic N-glycan ligands were printed on NHS-activated glass slides through amide bond formation with 100 μM each of glycans 1-33 (FIG. 198). Each sample was printed with five replicates and slide images were obtained from a fluorescence scan after incubation with DyLight649-conjugated donkey anti-Human IgG antibody. […] Furthermore, PG9 and PGTs 141-145 were not detected to bind any of the glycans on the NHS array, probably due to their extremely weak binding. (FIGS. 203, 204A, 204B, 204C, 205A, 205B and 206).
a) Fabrication of N-hydroxy succinimide-coated glass slide: All monovalent glycans (G1-33) were prepared in 10 mM concentration individually and served as mother solutions which are to be diluted with printing buffer to prepare a working solution. […]
(§1) The slide was scanned at 635 nm with a microarray fluorescence chip reader (GenePix® 4300A, Molecular Devices Corporation). Scanned images were analyzed with GenePix Pro 6.0 analysis software (Molecular Devices Corporation,). […] The intensities was calculated and averaged. […]

PGTs 141-144 = test: Glycan array on ACG slide, binding of PGTs 141-144; parameters: species or system human; conditions: panel of glycans I-XI
Method: To understand the exact glycan epitopes recognized by antibodies PGTs 141-145^20, a panel of glycans I-XI on the ACG slide was prepared for analysis.
b) Fabrication of aluminum oxide coated glass slide. The aluminum oxide glass substrate provides advantages for being able to be assessed by both mass spectrometry and fluorescence scanning. […] There are many reports describing the surface of micron to nano pore structures of anodized aluminum oxide. However, only a few articles have mentioned the initial planar layer of aluminum oxide16 during the treatment of surface anodization. In the development of AAO glass substrate, a computer experimental design program (Design Expert 8.0) has been used to optimize the planar layer of surface anodized aluminum oxide to be best used in glycan microarray 17.
Antibodies PG9, PG16 and PGTs 141-145 were diluted by binding buffer to 100 μg/mL prior to use. DyLight649-conjugated Donkey Anti-Human IgG antibody was then pre-complexed with primary antibodies. The final concentration of the precomplexed solution was adjusted to 50 μg/mL with binding buffer. […]
as §1

PG16 [2] = test: Determination of surface dissociation constants (KD,surf) on ACG slide; format: binding, human
Text: (§2) To further understand why glycan binding to these bNAbs was not readily observed on the NHS-coated glass slides, the inventors conducted a specificity test with the ACG array. […] Therefore, the inventors can simply adjust the concentration of glycan to control the density and distance of glycans on the ACG surface. To prepare a representative ACG array, glycans I-XI (FIG. 5a) were linked to a phosphonic acid tail for spontaneous covalent immobilization on the ACG slide (Supplementary Scheme S21, as shown in FIG. 129). After incubation with a secondary antibody, the inventors determined the dissociation constant (KD.surf.)^59 of the glycans interacting with the antibody of interest. […]
(§3) b) Fabrication of aluminum oxide coated glass slide. The aluminum oxide glass substrate provides advantages for being able to be assessed by both mass spectrometry and fluorescence scanning. […]
The aluminum oxide coated glass slides for the determination of dissociation constants were spotted with 100 and 50 μM concentrations of glycans Man5GlcNAc2 (V), hybrid type (XI), bi-antennary complex type (XII), V+XI (1:1 mole ratio), V+XII, and XI+XII. […] Finally, slides were washed with PBST, spin dried and scanned at 450 nm with a microarray fluorescence chip reader. Scanned images were analyzed with GenePix Pro 6.0 analysis software. […]

PG9 = test: Glycan array on aluminium oxide-coated glass (ACG) slide, homo- and mixed glycans, binding of PG9; conditions: homogeneous array of glycans I-XI
Text: To evaluate whether the ACG array format could enhance the detection sensitivity, the inventors performed a ligand specificity profiling at various concentrations of PG9. […] Previously, it was shown that PG9 required Man5GlcNAc2 at primary (Asn160) and secondary (Asn156 or Asn173) binding sites together with a short peptide strand in gp120 recognition^26, whereas the composition of glycan at Asn156 or Asn173 was defined as a complex-type glycan in later studies^30,31. In the present study, the strong PG9 interaction with the hybrid-type structure compared to both Man5GlcNAc2 and complex-type glycans indicated the presence of a hybrid-type glycan or an oligomannose and a complex-type glycan in close proximity as ligand(s).
To evaluate the glycan combination at Asn160 and Asn156/Asn173 of gp120 that best fits into the PG9 binding pocket, the inventors printed two different mixed-glycan arrays. […]
as §3, §1

PG16 [3] = test: Glycan array on aluminium oxide-coated glass (ACG) slide, homo- and mixed glycans, binding of PG16; conditions: 100 μM glycan or mixtures of IV and XI
Text: as §2, with “interest. Using the ACG slide, the signal intensity was enhanced, as shown by the use of PG16 at 1 μg/mL on the ACG slide in comparison to 25 μg/mL used on the NHS-coated glass slide (FIG. 5b and Supplementary FIG. 199).” for “interest.”
as §3, §1

Compound: 5-Aminopentyl-di-[5-Acetamido-3,5-dideoxy-D-glycero-α-D-galacto-2-nonulopyrano-sylonate-(2→6)-β-D-galactopyranosyl-(1→4)-2-acetamido-2-deoxy-β-D-glucopyranosyl-(1→2)-α-D-mannopyranosyl]-(1→3),(1→6)-β-D-mannopyranosyl-(1→4)-2-acetamido-2-deoxy-β-D-glucopyranosyl-(1→4)-(α-L-fucopyranosyl-(1→6)-2-acetamido-2-deoxy-β-D-glucopyranoside [glycan 19]
- binding of PG16 (PG16 [1]): not affected by the presence of the core fucose

Compound: CC(=O)N[C@H]1[C@H](O[C@H]2[C@H](O)[C@@H](NC(C)=O)C(O)O[C@@H]2CO)O[C@H](CO)[C@@H](O[C@@H]2O[C@H](CO[C@H]3O[C@H](CO[C@H]4O[C@H](CO)[C@@H](O)[C@H](O)[C@@H]4O[C@H]4O[C@H](CO)[C@@H](O)[C@H](O)[C@@H]4O)[C@@H](O)[C@H](O[C@H]4O[C@H](CO)[C@@H](O)[C@H](O)[C@@H]4O[C@H]4O[C@H](CO)[C@@H](O)[C@H](O)[C@@H]4O)[C@@H]3O)[C@@H](O)[C@H](O[C@H]3O[C@H](CO)[C@@H](O)[C@H](O)[C@@H]3O[C@H]3O[C@H](CO)[C@@H](O)[C@H](O)[C@@H]3O[C@H]3O[C@H](CO)[C@@H](O)[C@H](O)[C@@H]3O)[C@@H]2O)[C@@H]1O (stereo partly shown) [Man9GlcNAc2]
- binding of PGTs 141-144 (PGTs 141-144): significant decrease in the affinity

Compound: CC(=O)NC1C(O)[C@H](O[C@@H]2OC(CO[C@]3(C(=O)O)CC(O)[C@@H](NC(C)=O)C([C@H](O)[C@H](O)CO)O3)[C@H](O)C(O)C2O)C(CO)O[C@H]1OC1C(O)[C@H](O)C(CO)O[C@@H]1OC1C(O)[C@H](O[C@@H]2C(CO)O[C@@H](O[C@@H]3C(CO)O[C@@H](OCCNC(=O)OCCOCCOCCP(=O)(O)O)C(NC(C)=O)C3O)C(NC(C)=O)C2O)OC(CO[C@H]2OC(CO[C@H]3OC(CO)[C@@H](O)C(O)C3O)[C@@H](O)C(O[C@H]3OC(CO)[C@@H](O)C(O)C3O)C2O)[C@H]1O (stereo partly shown) [X]
- Kd (PG16 [2]; read-out: KD (binding affinity of PG16)): 935 nM
- binding of PG9 to single glycans (PG9): apparent specificity; also recorded: significant enhancement in binding

Compound: Man5GlcNAc2
- binding of PG16 (PG16 [1]): could not observe binding
- signal intensities for binding of PG16 (PG16 [2]; glycans spotted at 100 and 50 μM): too weak to determine the KD
- binding of PG16 (PG16 [3]): unable to detect PG16 binding
